Experimental data as given in patent publication US20240082235A1, “METHOD FOR TREATING OR INHIBITING CYTOMEGALOVIRUS INFECTION USING SMALL MOLECULES TARGETING PROTEIN PHOSPHATASE 1” (HOWARD UNIVERSITY, priority 2020, published 2024).

Key:
[1] = molecular target: PP1 with peptides containing an RVxF sequence (Homo sapiens, UniProt P62136); settings: in vitro; Ammosova et al. 2012, 2014; cited from earlier work
PP1 = PP1 (Homo sapiens, UniProt P62136); settings: SPR; Lin et al. 2017; read-out: KD of binding to PP1; cited from earlier work
PP1-cdNIPP1 interaction = molecular target: T1, PP1-cdNIPP1 interaction (Homo sapiens, UniProt P62136); assay: Split NanoBit protein:protein interaction assay, WT PP1 with WT cdNIPP1; format: binding; settings: FIG. 4B
T1 construct: NanoBiT large bit (LgBiT)

[2] = system: CMV immediate early proteins; assay: Expression of CMV immediate early proteins in infected cells; format: cell-based, human cytomegalovirus; settings: FIG. 5B
[3] = molecular target: T2, PP1-cdNIPP1 RATA interaction (Homo sapiens, UniProt P62136); assay: Split NanoBit protein:protein interaction assay, WT PP1 with RVxF-mutant cdNIPP1; format: binding; settings: FIG. 4B, cdNIPP1 with RVxF mutation
T2 construct: NanoBiT large bit (LgBiT)

CMV = assay: Plaque assay of human foreskin fibroblasts infected with CMV; format: cell-based, human cytomegalovirus; settings: percentage compared to untreated control, FIG. 5A
[4] = system: CMV IE1, IE2 and UL32 mRNA; assay: Viral mRNA expression by RT-qPCR in infected human foreskin fibroblasts; format: cell-based, human cytomegalovirus; settings: fold-change compared to infected cells treated with vehicle only, FIG. 5C

Sequence of PP1 with peptides containing an RVxF sequence (P62136 whole entry): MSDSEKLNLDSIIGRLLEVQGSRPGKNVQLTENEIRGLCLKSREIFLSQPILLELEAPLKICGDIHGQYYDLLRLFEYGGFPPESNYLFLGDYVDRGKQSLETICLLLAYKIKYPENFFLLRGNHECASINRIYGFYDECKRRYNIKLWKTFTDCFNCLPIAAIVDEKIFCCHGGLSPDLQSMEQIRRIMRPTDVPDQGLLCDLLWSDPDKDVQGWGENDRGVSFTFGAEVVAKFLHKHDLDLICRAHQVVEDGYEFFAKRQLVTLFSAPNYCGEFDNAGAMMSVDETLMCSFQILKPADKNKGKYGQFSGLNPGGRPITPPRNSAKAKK
T2 sequence (P62136 whole entry): as above
T1 sequence (P62136 whole entry): as above
Sequence of PP1 (P62136 whole entry): as above

CCNC(=O)NC(=O)C(C)OC(=O)c1c2c(nc3ccccc13)/C(=C/c1ccc(OC)c(OC)c1)CC2 (stereo not shown) [1E7-03]
Interaction of PP1 with peptides containing an RVxF sequence [1]: disrupted the interaction of PP1 with peptides containing an RVxF sequence | Kd (PP1): 6.2 µM | Effect on PP1-cdNIPP1 interaction (PP1-cdNIPP1 interaction): inhibited the PP1-cdNIPP1 interaction | Expression of CMV immediate early proteins [2]: reduced | Effect on PP1-cdNIPP1 RATA interaction [3]: did not have an effect | Inhibition of CMV replication (CMV): concentration-dependent inhibition of CMV replication | Viral mRNA expression (IE1, IE2, UL32) [4]: no effect on viral transcription
